In article PMC4503722, “Novel Phenotypic Outcomes Identified for a Public Collection of Approved Drugs from a Publicly Accessible Panel of Assays” (PLoS ONE, 2015):

Experiments:
HCT116 = assay: cells; format: cell-based; conditions: basal; for IC50 / Basal_Viability ATP HCT116 IC50/EC50: assay number 25; for IC50: read-out: Basal_Viability ATP HCT116 summarized IC50
[1] = tested on: endothelial tube formation in co-cultures of ECFCs and ADSCs treated with VEGF; assay: cells; format: cell-based, human; conditions: for IC50: read-out: VEGF_ADSC\ECFC Angio CD31 TubeArea summarized IC50
[2] = tested on: HCT116 cells treated with a GSK3β inhibitor; assay: cells; format: cell-based; conditions: for IC50 / GSK3b inh pretreated_Viability ATP HCT116 IC50/EC50: assay number 26, GSK3b inhibitor pretreated; for IC50: read-out: GSK3b inh pretreated_Viability ATP HCT116 summarized IC50; for IC50/EC50, GSK3b inh pretreated_Viability ATP HCT116 (assay number 26): GSK3b inh pretreated
SW480 = assay: cells; format: cell-based; conditions: basal; for IC50 / Basal_Viability ATP SW480 IC50/EC50: assay number 24; for IC50: read-out: Basal_Viability ATP SW480 summarized IC50
Colo320 = assay: cells; format: cell-based; conditions: basal; for IC50 / Basal_Viability ATP Colo 320 IC50/EC50: assay number 27; for IC50: read-out: Basal_Viability ATP Colo 320 summarized IC50
RKO = assay: cells; format: cell-based; conditions: basal; for IC50 / Basal_Viability ATP RKO IC50/EC50: assay number 29; for IC50: read-out: Basal_Viability ATP RKO summarized IC50
DLD-1 = assay: cells; format: cell-based; conditions: basal; for IC50 / Basal_Viability ATP DLD-1 IC50/EC50: assay number 23; for IC50: read-out: Basal_Viability ATP DLD-1 summarized IC50
HT-29 = assay: cells; format: cell-based; conditions: basal; for IC50 / Basal_Viability ATP HT-29 IC50/EC50: assay number 28; for IC50: read-out: Basal_Viability ATP HT-29 summarized IC50
[3] = tested on: ECFC/ADSC co-culture cell nuclei number; conditions: for IC50: read-out: VEGF_ADSC\ECFC Angio Hoechst NucArea summarized IC50
SNU-C1 = assay: cells; format: cell-based; conditions: basal; for IC50 / Basal_Viability ATP SNU-C1 IC50/EC50: assay number 30; for IC50: read-out: Basal_Viability ATP SNU-C1 summarized IC50

Question: What does the source list for `CNC(=O)Oc1cccc2ccccc12` [NCGC00090680-06]?
Answer: IC50 (HCT116): > 20 µM; IC50 [1]: > 10 µM; IC50 [2]: > 20 µM; IC50 (SW480): > 20 µM; IC50 (Colo320): > 20 µM; IC50 (RKO): > 20 µM; IC50 (DLD-1): > 20 µM; IC50 (HT-29): > 20 µM; IC50 [3]: > 10 µM; IC50 (SNU-C1): > 20 µM

Question: `COC(=O)c1ccccc1C(=O)OC` [NCGC00090692-06] was tested. Which IC50 (HCT116) did it give?
Answer: > 20 µM

Question: And the IC50 [1]?
Answer: > 10 µM

Question: And the IC50 [2]?
Answer: > 20 µM

Question: What about the IC50 (SW480) of the same compound?
Answer: > 20 µM

Question: What about the IC50 (Colo320) of the same compound?
Answer: > 20 µM

Question: And the IC50 (RKO)?
Answer: > 20 µM

Question: And the IC50 (DLD-1)?
Answer: > 20 µM

Question: And the IC50 (HT-29)?
Answer: > 20 µM

Question: What about the IC50 [3] of the same compound?
Answer: > 10 µM

Question: What about the IC50 (SNU-C1) of the same compound?
Answer: > 20 µM

Question: For `CC1=C(/C=C/C(C)=C/C=C/C(C)=C/C(=O)Nc2ccc(O)cc2)C(C)(C)CCC1` [NCGC00090752-12], which “IC50/EC50, Basal_Viability ATP HCT116 (assay number 25)” value (HCT116) is on record?
Answer: 5.2999 µM

Question: What about the “IC50/EC50, VEGF_ADSC\ECFC Angio CD31 TubeArea (assay number 2)” value [1] of the same compound?
Answer: 1.3414 µM

Question: What about the “IC50/EC50, GSK3b inh pretreated_Viability ATP HCT116 (assay number 26)” value [2] of the same compound?
Answer: 4.9507 µM

Question: And the “IC50/EC50, Basal_Viability ATP SW480 (assay number 24)” value (SW480)?
Answer: 4.8504 µM

Question: What about the “IC50/EC50, Basal_Viability ATP Colo 320 (assay number 27)” value (Colo320) of the same compound?
Answer: 3.2421 µM

Question: And the “IC50/EC50, Basal_Viability ATP RKO (assay number 29)” value (RKO)?
Answer: 1.718 µM

Question: And the “IC50/EC50, Basal_Viability ATP DLD-1 (assay number 23)” value (DLD-1)?
Answer: 9.4899 µM

Question: And the “IC50/EC50, Basal_Viability ATP HT-29 (assay number 28)” value (HT-29)?
Answer: 2.1199 µM

Question: And the “IC50/EC50, VEGF_ADSC\ECFC Angio Hoechst NucArea (assay number 3)” value [3]?
Answer: 6.2365 µM

Question: And the “IC50/EC50, Basal_Viability ATP SNU-C1 (assay number 30)” value (SNU-C1)?
Answer: 6.6943 µM

Question: What does the source list for `CCCCCCCCOC(=O)c1ccccc1C(=O)OCCCCCCCC` [NCGC00090781-05]?
Answer: Basal_Viability ATP HCT116 IC50/EC50 (HCT116): > 20 µM; VEGF_ADSC\ECFC Angio CD31 TubeArea IC50/EC50 [1]: > 10 µM; GSK3b inh pretreated_Viability ATP HCT116 IC50/EC50 [2]: > 20 µM; Basal_Viability ATP SW480 IC50/EC50 (SW480): > 20 µM; Basal_Viability ATP Colo 320 IC50/EC50 (Colo320): > 20 µM; Basal_Viability ATP RKO IC50/EC50 (RKO): > 20 µM; Basal_Viability ATP DLD-1 IC50/EC50 (DLD-1): > 20 µM; Basal_Viability ATP HT-29 IC50/EC50 (HT-29): > 20 µM; VEGF_ADSC\ECFC Angio Hoechst NucArea IC50/EC50 [3]: > 10 µM; Basal_Viability ATP SNU-C1 IC50/EC50 (SNU-C1): > 20 µM

Question: Which “Basal_Viability ATP HCT116 IC50/EC50” value (HCT116) does the source give for `CCOC(=O)c1ccccc1C(=O)OCC` [NCGC00090974-06] here?
Answer: > 20 µM

Question: And the “VEGF_ADSC\ECFC Angio CD31 TubeArea IC50/EC50” value [1]?
Answer: > 10 µM

Question: And the “GSK3b inh pretreated_Viability ATP HCT116 IC50/EC50” value [2]?
Answer: > 20 µM

Question: And the “Basal_Viability ATP SW480 IC50/EC50” value (SW480)?
Answer: > 20 µM

Question: What about the “Basal_Viability ATP Colo 320 IC50/EC50” value (Colo320) of the same compound?
Answer: > 20 µM

Question: And the “Basal_Viability ATP RKO IC50/EC50” value (RKO)?
Answer: > 20 µM

Question: What about the “Basal_Viability ATP DLD-1 IC50/EC50” value (DLD-1) of the same compound?
Answer: > 20 µM

Question: What about the “Basal_Viability ATP HT-29 IC50/EC50” value (HT-29) of the same compound?
Answer: > 20 µM

Question: And the “VEGF_ADSC\ECFC Angio Hoechst NucArea IC50/EC50” value [3]?
Answer: > 10 µM

Question: What about the “Basal_Viability ATP SNU-C1 IC50/EC50” value (SNU-C1) of the same compound?
Answer: > 20 µM

Question: Which “IC50/EC50, Basal_Viability ATP HCT116 (assay number 25)” value (HCT116) does the source give for `CC/C=C\C/C=C\C/C=C\CCCCCCCC(=O)O` [NCGC00091058-11] here?
Answer: > 20 µM

Question: And the “IC50/EC50, VEGF_ADSC\ECFC Angio CD31 TubeArea (assay number 2)” value [1]?
Answer: > 10 µM

Question: What about the “IC50/EC50, GSK3b inh pretreated_Viability ATP HCT116 (assay number 26)” value [2] of the same compound?
Answer: > 20 µM

Question: And the “IC50/EC50, Basal_Viability ATP SW480 (assay number 24)” value (SW480)?
Answer: > 20 µM

Question: And the “IC50/EC50, Basal_Viability ATP Colo 320 (assay number 27)” value (Colo320)?
Answer: > 20 µM

Question: What about the “IC50/EC50, Basal_Viability ATP RKO (assay number 29)” value (RKO) of the same compound?
Answer: > 20 µM

Question: And the “IC50/EC50, Basal_Viability ATP DLD-1 (assay number 23)” value (DLD-1)?
Answer: > 20 µM

Question: And the “IC50/EC50, Basal_Viability ATP HT-29 (assay number 28)” value (HT-29)?
Answer: > 20 µM

Question: And the “IC50/EC50, VEGF_ADSC\ECFC Angio Hoechst NucArea (assay number 3)” value [3]?
Answer: > 10 µM

Question: And the “IC50/EC50, Basal_Viability ATP SNU-C1 (assay number 30)” value (SNU-C1)?
Answer: > 20 µM

Question: `CCCCCCCC(=O)OCC(COC(=O)CCCCCCC)OC(=O)CCCCCCC` [NCGC00091285-03] was tested. Which “Basal_Viability ATP HCT116 IC50/EC50” value (HCT116) did it give?
Answer: > 20 µM

Question: What about the “VEGF_ADSC\ECFC Angio CD31 TubeArea IC50/EC50” value [1] of the same compound?
Answer: > 10 µM

Question: And the “GSK3b inh pretreated_Viability ATP HCT116 IC50/EC50” value [2]?
Answer: > 20 µM

Question: What about the “Basal_Viability ATP SW480 IC50/EC50” value (SW480) of the same compound?
Answer: > 20 µM

Question: What about the “Basal_Viability ATP Colo 320 IC50/EC50” value (Colo320) of the same compound?
Answer: > 20 µM

Question: What about the “Basal_Viability ATP RKO IC50/EC50” value (RKO) of the same compound?
Answer: > 20 µM

Question: What about the “Basal_Viability ATP DLD-1 IC50/EC50” value (DLD-1) of the same compound?
Answer: > 20 µM

Question: And the “Basal_Viability ATP HT-29 IC50/EC50” value (HT-29)?
Answer: > 20 µM

Question: What about the “VEGF_ADSC\ECFC Angio Hoechst NucArea IC50/EC50” value [3] of the same compound?
Answer: > 10 µM

Question: And the “Basal_Viability ATP SNU-C1 IC50/EC50” value (SNU-C1)?
Answer: > 20 µM
